According to ChEMBL document CHEMBL1201862, “PubChem BioAssay data set” (2004):
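Growth conditions: 96-well plates. Treatment: test compound, 48 hours, 5 concentrations. Analysis: linear interpolation between bracketing concentrations; unreached endpoints set to highest concentration. Here, GI50 denotes the concentration required for 50% inhibition of growth.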 The source made the active and inactive calls. Cut-off read from the data, not from the text of the source: active = GI50 up to about 1.1 µM and inactive = higher.

Legend:
Test in all cases: inhibition of tumour cell growth, NCI panel, 48 h
KM12 = tested on: KM12
COLO 205 = tested on: COLO 205
UACC-257 = tested on: UACC-257
UO-31 = tested on: UO-31
Malme-3M = tested on: Malme-3M
SW-620 = tested on: SW-620
HOP-62 = tested on: HOP-62
LOX IMVI = tested on: LOX IMVI
TK-10 = tested on: TK-10
HOP-92 = tested on: HOP-92
SK-MEL-2 = tested on: SK-MEL-2
DLD-1 = tested on: DLD-1
RPMI-8226 = tested on: RPMI-8226
OVCAR-3 = tested on: OVCAR-3
CAKI-1 = tested on: CAKI-1
SF-295 = tested on: SF-295
IGROV-1 = tested on: IGROV-1
SNB-75 = tested on: SNB-75
NCI-H226 = tested on: NCI-H226
BT-549 = tested on: BT-549

Row | SMILES | GI50 (KM12) | GI50 (COLO 205) | GI50 (UACC-257) | GI50 (UO-31) | GI50 (Malme-3M) | GI50 (SW-620) | GI50 (HOP-62) | GI50 (LOX IMVI) | GI50 (TK-10) | GI50 (HOP-92) | GI50 (SK-MEL-2) | GI50 (DLD-1) | GI50 (RPMI-8226) | GI50 (OVCAR-3) | GI50 (CAKI-1) | GI50 (SF-295) | GI50 (IGROV-1) | GI50 (SNB-75) | GI50 (NCI-H226) | GI50 (BT-549)
1 | CC1CC2(CC[C@@H]1O)OCCO2 (stereo partly specified) | > 100 µM (inactive) | > 100 µM (inactive) | > 100 µM (inactive) | > 100 µM (inactive) | > 100 µM (inactive) | > 100 µM (inactive) | > 100 µM (inactive) | > 100 µM (inactive) | > 100 µM (inactive) | > 100 µM (inactive) | > 100 µM (inactive) | > 100 µM (inactive) | > 100 µM (inactive) | > 100 µM (inactive) | > 100 µM (inactive) | > 100 µM (inactive) | > 100 µM (inactive) | – | – | –
2 | c1ccc2c(c1)C1CCCCCC21N1CCOCC1 (stereo unspecified) | > 100 µM (inactive) | > 100 µM (inactive) | > 100 µM (inactive) | > 100 µM (inactive) | – | > 100 µM (inactive) | > 100 µM (inactive) | > 100 µM (inactive) | > 100 µM (inactive) | – | > 100 µM (inactive) | 84.5 µM (inactive) | – | 20.6 µM (inactive) | > 100 µM (inactive) | > 100 µM (inactive) | > 100 µM (inactive) | 34.8 µM (inactive) | 92.9 µM (inactive) | –
3 | Cc1nc2c(ccc3ncccc32)[nH]1 | > 100 µM (inactive) | > 100 µM (inactive) | > 100 µM (inactive) | > 100 µM (inactive) | > 100 µM (inactive) | > 100 µM (inactive) | > 100 µM (inactive) | > 100 µM (inactive) | > 100 µM (inactive) | > 100 µM (inactive) | > 100 µM (inactive) | > 100 µM (inactive) | > 100 µM (inactive) | > 100 µM (inactive) | > 100 µM (inactive) | > 100 µM (inactive) | > 100 µM (inactive) | > 100 µM (inactive) | – | –
4 | O=C1c2ccccc2NC1(c1ccccc1)c1c(-c2ccccc2)[nH]c2ccccc12 (stereo unspecified) | 10.5 µM (inactive) | 6.12 µM (inactive) | 44 µM (inactive) | 7.82 µM (inactive) | – | 51.9 µM (inactive) | 67.5 µM (inactive) | – | – | 5.35 µM (inactive) | 11.9 µM (inactive) | 9.2 µM (inactive) | 3.88 µM (inactive) | 21.2 µM (inactive) | 8.77 µM (inactive) | 6.34 µM (inactive) | 4.41 µM (inactive) | 24.7 µM (inactive) | – | –
5 | COc1ccc(/C=C2/CCCC/C2=N/O)cc1 | > 100 µM (inactive) | > 100 µM (inactive) | > 100 µM (inactive) | > 100 µM (inactive) | > 100 µM (inactive) | > 100 µM (inactive) | > 100 µM (inactive) | 29.6 µM (inactive) | > 100 µM (inactive) | 46.1 µM (inactive) | > 100 µM (inactive) | 67.5 µM (inactive) | > 100 µM (inactive) | > 100 µM (inactive) | – | > 100 µM (inactive) | 41 µM (inactive) | 31.6 µM (inactive) | – | –
6 | COC12CCC(=O)C=C1c1ccccc1N2C(C)=O (stereo unspecified) | > 100 µM (inactive) | > 100 µM (inactive) | > 100 µM (inactive) | > 100 µM (inactive) | – | > 100 µM (inactive) | > 100 µM (inactive) | – | – | < 0.01 µM (active) | > 100 µM (inactive) | > 100 µM (inactive) | > 100 µM (inactive) | > 100 µM (inactive) | > 100 µM (inactive) | > 100 µM (inactive) | > 100 µM (inactive) | > 100 µM (inactive) | – | –
7 | CC(C)(C)c1cc(COc2c3sc(=S)sc3c(OCc3cc(C(C)(C)C)cc(C(C)(C)C)c3)c3sc(=S)sc23)cc(C(C)(C)C)c1 | – | > 100 µM (inactive) | > 100 µM (inactive) | – | – | > 100 µM (inactive) | > 100 µM (inactive) | > 100 µM (inactive) | > 100 µM (inactive) | – | – | > 100 µM (inactive) | > 100 µM (inactive) | > 100 µM (inactive) | > 100 µM (inactive) | > 100 µM (inactive) | > 100 µM (inactive) | > 100 µM (inactive) | – | –
8 | Cc1nn(C)cc1P(=S)(c1ccccc1)c1ccccc1 | 36.4 µM (inactive) | 48.5 µM (inactive) | 97.1 µM (inactive) | > 100 µM (inactive) | 58.6 µM (inactive) | 51.9 µM (inactive) | 70.3 µM (inactive) | 30.3 µM (inactive) | > 100 µM (inactive) | 35.2 µM (inactive) | > 100 µM (inactive) | 51.4 µM (inactive) | 28.7 µM (inactive) | > 100 µM (inactive) | 95.3 µM (inactive) | 67.5 µM (inactive) | > 100 µM (inactive) | 24.4 µM (inactive) | – | –
9 | COC(=O)c1nc2c(C)c(O)c(O)c([C@H](C)CCC=C(C)C)c2o1 | 23.3 µM (inactive) | 16.2 µM (inactive) | 28.4 µM (inactive) | 17.7 µM (inactive) | 26.7 µM (inactive) | 39.5 µM (inactive) | 16.5 µM (inactive) | 43.2 µM (inactive) | 39 µM (inactive) | 26.5 µM (inactive) | 20.5 µM (inactive) | – | 13 µM (inactive) | 26.5 µM (inactive) | 23.8 µM (inactive) | 25 µM (inactive) | 20.9 µM (inactive) | 18.2 µM (inactive) | 17.9 µM (inactive) | 37.6 µM (inactive)
10 | CN(C(=O)[C@H](NC(=O)OCc1ccccc1)c1ccccc1)C1CCCCC1N1CCCC1 (stereo partly specified) | > 100 µM (inactive) | 87.9 µM (inactive) | 26.1 µM (inactive) | 48.5 µM (inactive) | 48.4 µM (inactive) | > 100 µM (inactive) | > 100 µM (inactive) | 77.6 µM (inactive) | 74.6 µM (inactive) | 31.5 µM (inactive) | > 100 µM (inactive) | – | 36.3 µM (inactive) | > 100 µM (inactive) | > 100 µM (inactive) | > 100 µM (inactive) | 70.3 µM (inactive) | 97.3 µM (inactive) | 0.55 µM (active) | > 100 µM (inactive)
11 | CCc1nnc(S)n1/N=C\c1ccc(-c2ccccc2[N+](=O)[O-])o1 | 31.8 µM (inactive) | 29.9 µM (inactive) | 76.4 µM (inactive) | 41.5 µM (inactive) | 85.5 µM (inactive) | 41.7 µM (inactive) | 56.5 µM (inactive) | 28 µM (inactive) | > 100 µM (inactive) | 49.3 µM (inactive) | 29.4 µM (inactive) | – | 13.2 µM (inactive) | 18.2 µM (inactive) | 51.4 µM (inactive) | 28.7 µM (inactive) | 31.7 µM (inactive) | 32.1 µM (inactive) | 12.1 µM (inactive) | 28.8 µM (inactive)
12 | Cc1c(C)c(S(=O)(=O)N(CCCCCON)OCCCN)c(C)c2c1OC(C)(C)CC2 | 13.9 µM (inactive) | 3.48 µM (inactive) | 15.9 µM (inactive) | 16.6 µM (inactive) | 14.3 µM (inactive) | 15 µM (inactive) | 16 µM (inactive) | 9.73 µM (inactive) | 14.3 µM (inactive) | 10.3 µM (inactive) | 15.4 µM (inactive) | – | 9.29 µM (inactive) | 14.5 µM (inactive) | 6.41 µM (inactive) | 15.2 µM (inactive) | 10 µM (inactive) | 14.3 µM (inactive) | 17.9 µM (inactive) | 15.5 µM (inactive)
13 | CN(C)/C=N/S(=O)(=O)c1nn2c(C=O)c(-c3ccc(-c4ccc([N+](=O)[O-])cc4)o3)nc2s1 | 5.64 µM (inactive) | 1.99 µM (inactive) | 7.41 µM (inactive) | 1.91 µM (inactive) | 1.78 µM (inactive) | 0.933 µM (active) | 7.43 µM (inactive) | 2.33 µM (inactive) | 3.39 µM (inactive) | 1.84 µM (inactive) | 7.28 µM (inactive) | – | 0.931 µM (active) | 2.07 µM (inactive) | 0.308 µM (active) | 7.08 µM (inactive) | 1.72 µM (inactive) | 9.18 µM (inactive) | 20.5 µM (inactive) | 1.72 µM (inactive)
14 | OCC1OC(n2cnc3c(/C=C(/O)c4ccccc4)ncnc32)C(O)C1O (stereo unspecified) | 4.62 µM (inactive) | 0.944 µM (active) | 3.89 µM (inactive) | 0.92 µM (active) | 5.33 µM (inactive) | 0.875 µM (active) | 5.21 µM (inactive) | 1.63 µM (inactive) | 0.516 µM (active) | > 25.1 µM (inactive) | 1.01 µM (active) | – | 1.38 µM (inactive) | 2.77 µM (inactive) | 3.11 µM (inactive) | 5.13 µM (inactive) | 0.927 µM (active) | 0.7 µM (active) | 5.38 µM (inactive) | 6.08 µM (inactive)
15 | COc1cc(/C=C/c2ccc(OC)c(OC)c2)cc(OC)c1 [(E)-3,4,3',5'-TETRAMETHOXYSTILBENE] | 15.5 µM (inactive) | 19.2 µM (inactive) | 46.3 µM (inactive) | 19.1 µM (inactive) | 49.2 µM (inactive) | 28.7 µM (inactive) | 63.7 µM (inactive) | 19.9 µM (inactive) | 56.1 µM (inactive) | > 100 µM (inactive) | 32 µM (inactive) | – | 83.4 µM (inactive) | 23.7 µM (inactive) | 32.9 µM (inactive) | 22.2 µM (inactive) | 46.9 µM (inactive) | 34 µM (inactive) | 30.2 µM (inactive) | 23.7 µM (inactive)
16 | O=C(O)c1cccc(S(=O)(=O)NN2C(=O)CSC2c2ccc(Cl)cc2Cl)c1 (stereo unspecified) | 41.7 µM (inactive) | > 100 µM (inactive) | 35.2 µM (inactive) | > 100 µM (inactive) | 82.4 µM (inactive) | 34.2 µM (inactive) | 44.9 µM (inactive) | 34.2 µM (inactive) | > 100 µM (inactive) | > 100 µM (inactive) | 32.3 µM (inactive) | – | 97.3 µM (inactive) | 36.1 µM (inactive) | > 100 µM (inactive) | 51.6 µM (inactive) | > 100 µM (inactive) | 30.2 µM (inactive) | 35.4 µM (inactive) | 29.1 µM (inactive)
